Results reported in patent publication US6509356B1, “1-(4-(Substituted alkoxy)benzyl)naphthalene compounds having estrogen inhibitory activity” (Eli Lilly and Company, priority 1997, dated 2003).
pEC50: −log10 of the molar value. Where a name gives a salt, the structure may show the parent alone.

System: MCF-7 breast adenocarcinoma cells
Experiment: MCF-7 Proliferation Assay (tritiated thymidine incorporation)
Type: cell-based
Settings: Homo sapiens, MCF7; MCF-7 cells (ATCC HTB 22) in DCC-FBS assay medium, 48 hours with drug, then tritiated thymidine pulse for 4 hours; read-out: Inhibition of MCF7 cell proliferation: ED50
Excerpt: Biological Activity of the Compounds of the Present Invention—MCF-7 Proliferation Assay
The data reported in each of the Examples given above for inhibition of MCF-7 cell proliferation were obtained in an assay which determined each compound's ability to inhibit the proliferation of MCF-7 breast adenocarcinoma cells.
In the assay, these cells (ATCC HTB 22) are maintained in minimal essential medium, phenol red-free, (Sigma, St. Louis, Mo.) supplemented with 10% (V/V) fetal bovine serum (FBS), L-glutamine (2 mM), sodium pyruvate (1 mM), HEPES {(N-[2-hydroxyethyl]piperazine-N′-[2-ethanesulfonic acid] 10 mM}, non-essential amino acids and bovine insulin (1 ug/mL) (maintenance medium). Ten days prior to assay, MCF-7 cells are switched to maintenance medium supplemented with 10% dextran coated charcoal stripped fetal bovine serum (DCC-FBS) assay medium) in place of 10% FBS to deplete internal stores of steroids. MCF-7 cells are removed from maintenance flasks using cell dissociation medium (Ca++/Mg++ free HBSS (phenol red-free) supplemented with 10 mM HEPES and 2 mM EDTA). Cells are washed twice with assay medium and adjusted to 80,000 cells/mL. Approximately […] (8,000 cells) are added to flat-bottom microculture wells (Costar 3596) and incubated at 37° C. in a 5% CO2 humidified incubator for 48 hours to allow for cell adherence and equilibration after transfer. Serial dilutions of drugs or DMSO as a diluent control are prepared in assay medium and […] to triplicate microcultures followed by […] assay medium for a final volume of […]. After an additional 48 hours at 37° C. in a 5% CO2 humidified incubator, microcultures are pulsed with tritiated thymidine (1 uCi/well) for 4 hours. Cultures are terminated by freezing at −70° C. for 24 hours followed by thawing and harvesting of microcultures using a Skatron Semiautomatic Cell Harvester. Samples are counted by liquid scintillation using a Wallac BetaPlace β counter.

SMILES	pEC50
CN1CCCC1COc1ccc(Cc2c(-c3ccc(O)cc3)ccc3cc(O)ccc23)cc1 (centres unmarked) [Example 1, 6-Hydroxy-2-(4-hydroxyphenyl)-1-[4-(N-methylpyrrolidin-2-yl)methoxy-benzyl]naphthalene hydrochloride]	9.30
Oc1ccc(-c2ccc3cc(O)ccc3c2Cc2ccc(OCCCNc3cccc4ccccc34)cc2)cc1 [Example 9, 6-hydroxy-2-(4-hydroxyphenyl)-1-[4-(3-(naphth-1-ylamino)propoxy)benzyl]naphthalene hydrochloride]	8.05
CN1CCCCC1COc1ccc(Cc2c(-c3ccc(O)cc3)ccc3cc(O)ccc23)cc1 (centres unmarked) [Example 4, 6-hydroxy-2-(4-hydroxyphenyl)-1-[4-(N-methylpiperidin-2-yl)-methoxybenzyl]naphthalene hydrochloride]	8.70
Oc1ccc(-c2ccc3cc(O)ccc3c2Cc2ccc(OCCCN3CCC4(CCCCC4)CC3)cc2)cc1 [Example 14, hydrochloride]	7.52
CCCCN(CCCC)CCCOc1ccc(Cc2c(-c3ccc(O)cc3)ccc3cc(O)ccc23)cc1 [Example 7, 6-hydroxy-2-(4-hydroxyphenyl)-1-[4-(3-(N,N-di-n-butylamino)-propoxy)benzyl]naphthalene hydrochloride]	8.40
CCCCN(CCCC)CCOc1ccc(Cc2c(-c3ccc(O)cc3)ccc3cc(O)ccc23)cc1 [Example 6, 6-hydroxy-2-(4-hydroxyphenyl)-1-[4-(2-(N,N-di-n-butylamino)-ethoxy)benzyl]naphthalene hydrochloride]	8.70
O=C1CCCN1CCOc1ccc(Cc2c(-c3ccc(O)cc3)ccc3cc(O)ccc23)cc1 [Example 15, 6-hydroxy-2-(4-hydroxyphenyl)-1-[4-(2-(pyrollidinon-1-yl)ethoxy)benzyl]naphthalene]	7.40
CC(C)N(CCOc1ccc(Cc2c(-c3ccc(O)cc3)ccc3cc(O)ccc23)cc1)C(C)C [Example 3, 6-hydroxy-2-(4-hydroxyphenyl)-1-[4-(2-(N,N-diisopropyl-amino)ethoxy)benzyl]naphthalene hydrochloride]	8.70
CC1CN(CCOc2ccc(Cc3c(-c4ccc(O)cc4)ccc4cc(O)ccc34)cc2)CC(C)O1 (centres unmarked) [Example 13, 6-hydroxy-2-(4-hydroxyphenyl)-1-[4-(2-(2,6-dimethylmorpholin-4-yl)ethoxy)benzyl]naphthalene hydrochloride]	7.70
CC(=O)c1ccc(N2CCN(CCOc3ccc(Cc4c(-c5ccc(O)cc5)ccc5cc(O)ccc45)cc3)CC2)cc1 [Example 8, 6-hydroxy-2-(4-hydroxyphenyl)-1-[4-(2-(4-(4-acetylphenyl)piperazin-1-yl)ethoxy)benzyl]-naphthalene dihydrochloride]	8.40
CCN(CCOc1ccc(Cc2c(-c3ccc(O)cc3)ccc3cc(O)ccc23)cc1)C(=O)Nc1cc(Cl)ccc1C [Example 11, N-ethyl-N-[4-(2-(6-hydroxy-2-(4-hydroxyphenyl)naphth-1-yl-methyl)phenoxy)ethyl]-N′-5-chloro-2-methylphenyl urea]	8.00
O=C1CCCN1CCCOc1ccc(Cc2c(-c3ccc(O)cc3)ccc3cc(O)ccc23)cc1 [Example 16, 6-hydroxy-2-(4-hydroxyphenyl)-1-[4-(3-(pyrollidinon-1-yl)propoxy)benzyl]naphthalene]	7.52
CN1CCCC(COc2ccc(Cc3c(-c4ccc(O)cc4)ccc4cc(O)ccc34)cc2)C1 (centres unmarked) [Example 5, 6-hydroxy-2-(4-hydroxyphenyl)-1-[4-(N-methylpiperidin-3-yl)-methoxybenzyl]naphthalene hydrochloride]	8.70
CCN(CC)CCCOc1ccc(Cc2c(-c3ccc(O)cc3)ccc3cc(O)ccc23)cc1 [Example 2, 6-Hydroxy-2-(4-hydroxyphenyl)-1-[4-(3-(N,N-diethylamino)-propoxy)benzyl]naphthalene hydrochloride]	9.05
